Entries after “also recorded” stand apart in the source; their conditions may differ.
How the values were obtained:
OT1 CD8 T cells [1] = assay: In vitro activation of OT1 splenocytes with N4 peptide and IL-2, CD62L by flow cytometry; type: cell-based, mouse
Experimental: To evaluate the effects of MPC inhibition on T cell differentiation, OT1 splenocytes were cultured in the presence of 1 μg/ml ovalbumin-derived N4 (SIINFEKL) peptide, 100 IU/ml recombinant human IL-2 (rhIL-2) and the MPC inhibitor (MPCi) UK5099 at 75 μM or control DMSO for 3 days. The inhibitor or DMSO was then washed away and the cells were cultured for 4 more days in the presence of 100 IU/ml IL-2 and 10 ng/ml rhIL-7 (FIG. 1A). […] Thus, the increase in the memory markers upon MPCi in vitro treatment occurs at the transcriptional level.
OT1 splenocytes were cultured for 3 days at a concentration of 10^6 cells per mL in RPMI medium (Gibco 61870-01) supplemented with 10% FBS, (Gibco 10270-106), 1% Penicillin/Streptomycin (Gibco 15070-063), 50 μM β-mercaptoethanol, 1% HEPES (Gibco 15630-080), 1× Non-essential amino acids (Gibco 11140-035), 1% L-glutamine (Gibco 25030-081), 1 mM Sodium Pyruvate (Gibco 11360-039). Cells were additionally supplemented with hIL-2 100 U/ml (Glaxo-IMB), ovalbumin N4 peptide (SIINFEKL) 1 μg/ml and either with 75 μM UK5099 (Sigma Aldrich) or with their solvent DMSO as a control. At day 3, splenocytes were collected, washed and split, and cells were cultured for 4 additional days with 100 U/ml hIL-2 and hIL-7 (Peprotech 200-07) supplemented either with 75 μM UK5099 (Sigma Aldrich) or DMSO. […]

B16-OVA tumor = assay: B16-OVA melanoma tumor model, adoptive cell transfer of pre-treated OT1 cells; type: in vivo, mouse
Experimental: To assess the functional capacity of the generated memory T cells, the MPCi-treated cells were further tested in a mouse model of melanoma. Briefly, 10^5 ovalbumin-expressing B16 melanoma cells were injected subcutaneously in 6-week-old mice. At day 6 post-engraftment, when a palpable tumor was present, mice were irradiated with 5Gy. The next day 10^5 MPCi- or DMSO-treated OT1 cells were intravenously injected, followed by a subcutaneous vaccination of 50 μg CpG and 10 μg SIINFEKL (FIG. 2A). […] Confirming the Listeria data, the proportion of central memory CD8+ T cells in the spleen was increased upon MPCi treatment (FIG. 2C).
Activated CD45.1+OT-1 splenocytes were culture in vitro for 7 days as described above, collected and purified on a Ficoll gradient, allowing to separate dead and live splenocytes. Live splenocytes were counted with Trypan blue stain 0.4%. 100′000 live splenocytes were transferred into CD45.2+ host mice by tail vein injection.
B16-OVA cells were cultured in DMEM (GIBCO) with 10% FBS and 1% P/S before their subcutaneous injection into the mouse flank. Each mouse received 100′000 cells in a volume of 200 μl of PBS. 6 days after B16-OVA cells injection, tumors were measured, mice were randomized and lymphodepleted by irradiation (5 Gray). 7 days after B16-Ova injection, mice were adoptively transferred with the ACT protocol described previously. Following the ACT, mice received a vaccination of CpG (50 μg/mouse) and N4 Ova peptide (10 μg/mouse) diluted in PBS to obtain a total volume of 100 μl/mouse, injected subcutaneously at the tail base. Tumors were measured every 2 days and the tumor volume was calculated according to the formula: V=π×[d2×D]/6, where d is the minor tumor axis and D is the major tumor axis. At day 26 days post-tumor engraftment, tumors and spleens were dissected were then stained for flow cytometry analyses.
Antibody panel for intra-tumoral T cells and splenocytic T cells was: CD8-PE-texas-Red, CD45.1-Pacific blue, CD45.2-FITC, CD62L-PE-Cy7, CD44-APC-Cy7, PD1-APC, Lag3-PE, and CD127-FITC.
Antibody panel for cytokine detection contained: CD8-PE-texas-Red, CD45.1-FITC, CD45.2-APC, TNFa-Pacific blue, IFNg-PerCP-Cy5.5, IL-2-PE.

OT1 CD8 T cells [2] = assay: ATAC sequencing of OT1 CD8 T cells; type: cell-based, mouse; details: ATAC-seq after 3 days of culture; vs DMSO
Description: Mechanistically, it was hypothesized by the inventors that epigenetic processes might underlie the observed long-term memory phenotype and anti-tumor activity upon metabolic intervention with MPCi. […] Since acetyl-CoA is the acetyl donor for the acetylation of proteins, amongst which also histones, histone post-translational modifications were examined that are known to make chromatin accessible to transcription factors, a characteristic of memory T cells. […] These are marks known to open chromatin and make it accessible for transcription factor docking. […] Amongst those were Sell, Tcf7 and Ccr7, thereby correlating accessible chromatin with increased mRNA copies (FIG. 3E and see above).
After 3 days of OT1 CD8 T cell culture, 5×10^4 cells were collected and transposed as described before (Buenrostro et al, Transposition of native chromatin for multimodal regulatory analysis and personal epigenomics. Nat Methods. 2013 December; 10(12): 1213-1218.). Amplified transposed fragments were sequenced on an Illumina HiSeq platform.
Computations of the analysis were performed at the Vital-IT Center for high-performance computing of the SIB Swiss Institute of Bioinformatics. Sequencing reads contained in fastq files were aligned to the Mouse mm10 reference genome using Bowtie2 v.2.3.4.1, and alignment files were manipulated with samtools v.1.8. Peak calling was performed with Macs2 v.2.1.1. […]

N#CC(=Cc1cn(-c2ccccc2)c2ccccc12)C(=O)O [UK5099, 2-cyano-3-(1-phenyl-1H-indol-3-yl)-2-propenoic acid]
surface expression of the central memory marker CD62L (OT1 CD8 T cells [1]; 75 μM d0-d3, then washed away, flow cytometry day 7, compared to DMSO): strong increase | surface CD62L expression at day 7, continued treatment (OT1 CD8 T cells [1]; MPCi treatment continued between d3 and d7): even more pronounced than a d0-d3 treatment only | proportion of central memory CD8+ T cells in the spleen (B16-OVA tumor; CD44 and CD62L double positive of transferred cells): increased | B16 tumor growth (B16-OVA tumor; mice that received 10^5 pre-treated OT1 CD8+ T cells, compared to DMSO, listed as MPCi): enhanced anti-tumoral activity; also recorded: strongly reduced | expression of PD-1 in T cells infiltrating the tumor (B16-OVA tumor; transferred CD8+CD45.1+ population in the tumor, vs DMSO): significantly decreased | cells double positive for IFNγ and TNF upon restimulation (B16-OVA tumor; tumor single cell suspension restimulated with SIINFEKL for 4 h): higher proportion | percentage of transferred cells out of total CD8+ T cells in spleen and tumor (B16-OVA tumor; upon dissection, data not shown): not strikingly different | genes associated with more accessible chromatin (OT1 CD8 T cells [2]): 981 genes

Reference: patent publication US20230302131A1, “MPC INHIBITION FOR PRODUCING T-CELLS WITH A MEMORY PHENOTYPE” (UNIVERSITÉ DE LAUSANNE, priority 2020, published 2023)
